The test system of assay [1] is HIV-1 IIIB. Type of assay: cell-based.
Assay [2] deals with HIV-1. The settings on record: cited from earlier work.
Assay [3] addresses NTD of capsid. The settings on record: affinity for the NTD; cited from earlier work.
Assay [4] has as its system HIV-1 IIIB. Kind of assay: Antiviral activity. The class given is cell-based. The settings on record: Table 1; HIV-1 IIIB in MT-2 cells; 50% reduction in p24 production; ± SD.

Read-outs that look alike come from different tables or passages of the source.

The values below come from PMC3034313 (Bioorganic & medicinal chemistry, 2010).

Usually Kd stands for the concentration at which binding is half-saturated. The term IC50 denotes the point on the concentration scale where inhibition reaches its midpoint. Higher therefore signals lower potency.

`c1cc(CN2CCCNCCNCCCNCC2)ccc1CN1CCCNCCNCCCNCC1` [AMD3100]: the “infectivity of virions released in the supernatant” value in assay [1] (producer MT-2 cells treated with 1 μg/mL, positive control) is given as “no viral infectivity”.
For the compound `Cc1ccc(NC(=O)NCCSCc2ccc(CN(C)C)o2)cc1Cl` [CAP-1], in assay [2], the “HIV-1 inhibition in viral infectivity assays” value is “dose-dependent HIV-1 inhibition”, the “infectivity of particles produced after treatment” value was “poorly infectious” and the “inhibition of virus production” value is “virtually no inhibition of virus production”. The dissociation constant Kd in assay [3] is about 800 µM.
On to `Cc1ccc2[nH]c(=O)c(CN(Cc3ccco3)C(=O)c3ccc(Cl)cc3)cc2c1` [Compound 6], for which, in assay [1] (producer MT-2 cells treated with 2.5 μM, p24-normalized, TCID50), the “percentage of infectivity with respect to the untreated control” value was “about 60%”. Moreover, in assay [1] (producer MT-2 cells treated with 5 μM), the “infectivity of virions released in the supernatant” value is “no viral infectivity”.
The compound “N-Furan-2-ylmethyl-6-methoxy-N-(6-methyl-2-oxo-1,2-dihydro-quinolin-3-ylmethyl)-nicotinamide [Compound 19]” yielded a half-maximal inhibitory concentration (IC50) in assay [4] of over 24.8 µM.
